Data as given in article PMC6150406, “Adding an Artificial Tail—Anchor to a Peptide-Based HIV-1 Fusion Inhibitor for Improvement of Its Potency and Resistance Profile” (Molecules : A Journal of Synthetic Chemistry and Natural …, 2017).
Read-outs that look alike come from different tables or passages of the source. Where a SMILES comes first, the peptide text is derived from it.

How the values were obtained:
[1] = biological target: T1, 6-HB formation between N46 and C34 (Human immunodeficiency virus type 1 group M subtype B, UniProt P04578); test: Inhibition of 6-HB formation between N46 and C34 (ELISA, NC-1); assay type: biochemical, HIV-1; details: ELISA with NC-1 mAb; 1 μM N46; 37 °C 30 min then 1 h; A450
T1 construct: NHR peptide N46 (aa 536-581 of NHR)
T1 sequence (P04578 536-581): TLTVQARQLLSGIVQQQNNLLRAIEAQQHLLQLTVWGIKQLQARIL
Experimental: The inhibitory activity of peptides on 6-HB formation was measured by a modified ELISA as previously described. Briefly, a 96-well polystyrene plate (Costar, Corning Inc., Corning, NY, USA) was coated with 50 μL 2 μg/mL NY364 (a polyclonal antibody for HIV-1 gp41 subunit) in 0.1 M Tris buffer (pH 8.8). A mixture of 1 μM N46 and C-peptide with graded concentrations was added to the coated plate after incubation at 37 °C for 30 min. After another 1 hour incubation at 37 °C, the plate was washed with washing buffer (PBS containing 0.1% Tween 20) three times and refilled by 50 μL 1 μg/mL NC-1 (a monoclonal antibody specific for HIV-1 gp41 6-HB formed by NHR and CHR). Afterwards, 50 μL of horseradish peroxidase (HRP)-labeled rabbit anti-mouse antibody (Sigma, St. Louis, MO, USA) (1:4000 diluted) were added to the wells of plate, followed by incubation for 1 h and washing. Finally, the substrate 3,3,5,5-tetramethylbenzidine (TMB, Sigma, St. Louis, MO, USA) was added. Absorbance at 450 nm (A450) was tested by an ELISA reader (Ultra 384, Tecan, NC, USA).

HIV-1 D36G/E49K/N126K = details: HP23-resistant D36G/E49K/N126K; p24 ELISA
Experimental: (§1) Inhibitory activities of peptides on infection by laboratory-adapted HIV-1 X4 strain IIIB and HIV-1 R5 strain Bal, and HIV-1 clinical strains, as well as T20-, T2635- and HP23-resistant strains, were determined as described previously. For each well of the 96-well plate, 104 MT-2 cells or CEMx174 5.25 M7 cells with graded concentrations of peptide were infected by […] TCID50 of the HIV-1 virus X4 or R5 strains, respectively. After overnight culture, the medium was replaced with fresh RPMI 1640 medium containing 10% FBS. Fifty microliters of culture supernatant were collected from each well on the fourth day for MT-2 cells and the seventh day for CEMx174 5.25 M7 cells. The supernatant was mixed with equal volumes of 5% Triton X-100. The p24 antigen was detected by ELISA as previously described. IC50 values were calculated using the Calcusyn software program (Biosoft, Ferguson, MO, USA).

KER2018 (A, R5) = details: clinical isolate KER2018 (A, R5); CEMx174 5.25 M7 cells, p24 ELISA day 7
Experimental: as §1

93IN101 (C, R5) = details: clinical isolate 93IN101 (C, R5); CEMx174 5.25 M7 cells, p24 ELISA day 7
Experimental: as §1

HIV-1 Q66R/N113E = details: T2635-resistant Q66R/N113E; p24 ELISA
Experimental: as §1

HIV-1 E49K/N126K = details: HP23-resistant E49K/N126K; p24 ELISA
Experimental: as §1

HIV-1 E49K = details: HP23-resistant E49K; p24 ELISA
Experimental: as §1

KNH1135 (A, R5) = details: clinical isolate KNH1135 (A, R5); CEMx174 5.25 M7 cells, p24 ELISA day 7
Experimental: as §1

HIV-1 A6V = details: T2635-resistant A6V; p24 ELISA
Experimental: as §1

92UG024 (D, X4) = details: clinical isolate 92UG024 (D, X4); MT-2 cells, p24 ELISA day 4
Experimental: as §1

HIV-1 K90E = details: T2635-resistant K90E; p24 ELISA
Experimental: as §1

[2] = test system: HIV-1 L34S/D36G/E49K/E136G; details: HP23-resistant L34S/D36G/E49K/E136G; p24 ELISA
Experimental: as §1

US4GS007 (B, R5) = details: clinical isolate US4GS007 (B, R5); CEMx174 5.25 M7 cells, p24 ELISA day 7
Experimental: as §1

HIV-1 N113E = details: T2635-resistant N113E; p24 ELISA
Experimental: as §1

HIV-1 WT = details: WT of T20-resistant panel; p24 ELISA
Experimental: as §1

BK132/GS009 (B, X4) = details: clinical isolate BK132/GS009 (B, X4); MT-2 cells, p24 ELISA day 4
Experimental: as §1

HIV-1 H3C = details: T2635-resistant H3C; p24 ELISA
Experimental: as §1

90US_873 (B, R5) = details: clinical isolate 90US_873 (B, R5); CEMx174 5.25 M7 cells, p24 ELISA day 7
Experimental: as §1

HIV-1 Bal (R5 virus) = details: read-out: IC50, HIV-1 Bal infection; CEMx174 5.25 M7 cells; p24 ELISA, seventh day
Experimental: as §1

92TH009 (A/E, R5) = details: clinical isolate 92TH009 (A/E, R5); CEMx174 5.25 M7 cells, p24 ELISA day 7
Experimental: as §1

HIV-1 K90E/N126K = details: T2635-resistant K90E/N126K; p24 ELISA
Experimental: as §1

HIV-1 Q66R = details: T2635-resistant Q66R; p24 ELISA
Experimental: as §1

NP1525 (A/E, X4/R5) = details: clinical isolate NP1525 (A/E, X4/R5); p24 ELISA
Experimental: as §1

HIV-1 N126K = details: T2635-resistant N126K; p24 ELISA
Experimental: as §1

HIV-1 V38A = details: T20-resistant V38A; p24 ELISA
Experimental: as §1

HIV-1 V38A, N42T = details: T20-resistant V38A, p24 ELISA
Experimental: as §1

HIV-1 V38E, N42S = details: T20-resistant V38E, p24 ELISA
Experimental: as §1

HIV-1 V38A, N42D = details: T20-resistant V38A, p24 ELISA
Experimental: as §1

HIV-1 wild-type = details: p24 ELISA
Experimental: as §1

HIV-1 Q79E = details: T2635-resistant Q79E; p24 ELISA
Experimental: as §1

93BR020 (F, X4/R5) = details: clinical isolate 93BR020 (F, X4/R5); p24 ELISA
Experimental: as §1

HIV-1 IIIB (X4 virus) = details: read-out: IC50, HIV-1 IIIB infection; MT-2 cells; p24 ELISA, fourth day
Experimental: as §1

HIV-1 Q79E/N126K = details: T2635-resistant Q79E/N126K; p24 ELISA
Experimental: as §1

HIV-1 K154Q = details: T2635-resistant K154Q; p24 ELISA
Experimental: as §1

[3] = test system: cell–cell fusion between H9/HIV-1IIIB cells and MT-2 cells; details: read-out: IC50, cell–cell fusion; H9/HIV-1IIIB (Calcein AM) with MT-2 cells, 37 °C, 2 h
Experimental: A dye transfer assay was used to detect HIV-1 Env-mediated cell-cell fusion as described previously. […] For each well of the 96-well plate, 50 μL 2 × 10^4/mL labeled H9/HIV-1IIIB cells were then incubated with 100 μL 1 × 10^5/mL MT-2 cells at 37 °C for 2 h in the presence or absence of the tested peptide at graded concentrations. […] The IC50 values were calculated by using the Calcusyn computer program (Biosoft, Ferguson, MO, USA).

[4] = clinical use; cited from earlier work

Compound CC[C@H](C)[C@H](NC(=O)[C@H](CCC(=O)O)NC(=O)[C@H](CCC(=O)O)NC(=O)[C@@H](NC(=O)[C@H](CCCCN)NC(=O)[C@H](CCCCN)NC(=O)[C@@H](NC(=O)[C@H](Cc1ccc(O)cc1)NC(=O)[C@H](CCC(=O)O)NC(=O)[C@H](CCC(=O)O)NC(=O)[C@@H](NC(=O)[C@H](CCCCN)NC(=O)[C@H](CCCCN)NC(=O)[C@H](CCC(=O)O)NC(=O)[C@H](Cc1c[nH]c2ccccc12)NC(=O)[C@H](CCC(=O)O)NC(=O)[C@H](CCC(=O)O)NC(=O)[C@H](Cc1c[nH]c2ccccc12)NC(=O)[C@@H](NC(=O)[C@H](CCSC)NC(=O)[C@@H](N)CCC(=O)O)[C@@H](C)O)[C@@H](C)CC)[C@@H](C)O)[C@@H](C)CC)C(=O)N[C@@H](CC(C)C)C(=O)N[C@@H](CCCCN)C(=O)O [HP23] (H-EMTWEEWEKKIEEYTKKIEEILK-OH) has an IC50 [1] of 3720 nM, an IC50 (HIV-1 D36G/E49K/N126K) of over 60 nM and an IC50 (KER2018 (A, R5)) of 1.9 ± 0.2 nM. For the same compound, the IC50 (93IN101 (C, R5)) was 3.7 ± 0.3 nM, the IC50 (HIV-1 Q66R/N113E) was 3.6 ± 0.3 nM and the IC50 (HIV-1 E49K/N126K) was 53.8 ± 1.2 nM. For the same compound, the IC50 (HIV-1 E49K) was 13.4 ± 0.7 nM, the IC50 (KNH1135 (A, R5)) was 2.2 ± 0.3 nM and the IC50 (HIV-1 A6V) was 1.6 ± 0.5 nM. The IC50 (92UG024 (D, X4)) was 3.5 ± 0.2 nM, the IC50 (HIV-1 K90E) was 9.4 ± 0.3 nM and the IC50 [2] was over 60 nM. The IC50 (US4GS007 (B, R5)) was 3.9 ± 0.6 nM, the IC50 (HIV-1 N113E) was 2.3 ± 0.5 nM and the IC50 (HIV-1 WT) was 3.1 ± 0.1 nM. For the same compound, the IC50 (BK132/GS009 (B, X4)) was 7.2 ± 0.5 nM, the IC50 (HIV-1 H3C) was 5.4 ± 0.4 nM and the IC50 (90US_873 (B, R5)) was 3.4 ± 0.6 nM. It also gave an IC50 (HIV-1 Bal (R5 virus)) of 5.96 nM, an IC50 (92TH009 (A/E, R5)) of 0.8 ± 0.2 nM and an IC50 (HIV-1 K90E/N126K) of 4.2 ± 0.3 nM. The IC50 (HIV-1 Q66R) was 2.8 ± 0.1 nM, the IC50 (NP1525 (A/E, X4/R5)) was 9.5 ± 0.6 nM and the IC50 (HIV-1 N126K) was 8.6 ± 0.4 nM. The IC50 (HIV-1 V38A) was 2.1 ± 0.7 nM, the IC50 (HIV-1 V38A, N42T) was 1.5 ± 0.3 nM and the IC50 (HIV-1 V38E, N42S) was 6.2 ± 0.3 nM. It also gave an IC50 (HIV-1 V38A, N42D) of 2.9 ± 0.3 nM, an IC50 (HIV-1 wild-type; wild-type of HP23-resistant panel) of 3.3 ± 0.3 nM and an IC50 (HIV-1 wild-type; wild-type of T2635-resistant panel) of 2.8 ± 0.2 nM. For the same compound, the IC50 (HIV-1 Q79E) was 4.2 ± 0.7 nM, the IC50 (93BR020 (F, X4/R5)) was 4.5 ± 0.2 nM and the IC50 (HIV-1 IIIB (X4 virus)) was 1.68 nM. The IC50 (HIV-1 Q79E/N126K) was 5.2 ± 0.4 nM, the IC50 (HIV-1 K154Q) was 7.4 ± 0.4 nM and the IC50 [3] was 5.12 nM.
For enfuvirtide, the “half-life (in words)” value [4] is listed as “short half-life”, the “oral bioavailability (in words)” value [4] is listed as “lack of oral bioavailability” and the IC50 [3] is listed as 16.6 nM.
